The source of these data is PubChem BioAssay (NCI).

Broadly, the TGI is the concentration giving total growth inhibition.

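Tested at 5 concentrations; 48 h exposure; 96-well plates; endpoints linearly interpolated, else capped at highest concentration. TGI denotes the concentration required for complete inhibition of growth.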 Bounds are passed on as bounds.

Experiment in all cases: DTP human tumour cell line panel, 48 h
The test system of assay [1] is EKVX NSCLC.
Assay [2] deals with A498 renal.
Assay [3] relates to SN12C renal.
For assay [4], the system named is OVCAR-8 ovarian.
Assay [5] deals with NCI-H460 lung.
Assay [6] relates to NCI-H522 lung.
Assay [7] deals with SK-MEL-2 melanoma.
Assay [8] deals with SF-295 CNS.
In assay [9] the test system is SNB-19 CNS.
For assay [10], the system named is BT-549 breast.

For `COc1ccc(C(CC(=O)c2cccs2)C(=O)c2ccc3c(c2)OCO3)cc1` (stereo not given), the TGI in assay [1], in assay [2], in [3], in assay [4] and in [5] was greater than 100 µM in each case.

`CCCOC(=O)CCC(NC(=O)c1ccc(Nc2nc3ccccc3nc2-c2cccs2)cc1)C(=O)OCCC` (stereo not given): the TGI is greater than 100 µM in assay [6]; greater than 100 µM in assay [1]; 59.9 µM in assay [7]; greater than 100 µM in assay [3]; greater than 100 µM in [4]; greater than 100 µM in assay [8]. Further, in [9], the TGI was greater than 100 µM.

Consider `CC(NC(CC12CC3CC(CC(C3)C1)C2)C(N)=O)c1ccccc1` (stereo not given), for which the TGI in assay [6] was 47.5 µM; in assay [1], greater than 100 µM; in [2], 31.5 µM; in assay [4], 64.4 µM; in assay [8] it was 28.4 µM; in assay [5] it was 36.6 µM. Also, in assay [9], the TGI is greater than 100 µM.

With `c1ccc(-c2cc(-c3ccccc3)nc(-c3ccncc3)c2)cc1`, the TGI in assay [6], in [1], in assay [7], in assay [3], in assay [4] and in assay [8] was greater than 100 µM throughout. The TGI in assay [10] and in assay [9] was greater than 100 µM each time.

On to `CC(=O)CC(O)(C(F)(F)Cl)C(F)(Cl)Cl` (stereo not given), for which the TGI in assay [6], in [1], in [7], in assay [2], in [3] and in assay [4] was greater than 10 µM throughout. The TGI in assay [8], in [5] and in [9] was greater than 10 µM in each case.

On to `CCn1c(=O)c2nc(SC)sc2n(-c2ccccc2)c1=S`, for which the TGI in assay [6], in assay [1], in [7], in [3], in assay [4] and in assay [8] was greater than 100 µM in each case. Besides, the TGI in [5] and in assay [9] was greater than 100 µM each time.

As for `O=C(Cn1c(=O)oc2ccccc21)N(c1ccccc1)c1ccccc1`, the TGI in assay [1], in [7], in assay [2], in [3], in assay [4] and in assay [8] was greater than 100 µM each time. The TGI in [5], in [10] and in [9] was greater than 100 µM each time.

Consider `C/C(=C\COP(=O)(O)OP(=O)(O)O)CC/C=C(\C)CNc1c(F)c(F)c(F)c(F)c1F`, for which the TGI in assay [6], in [1], in assay [7], in assay [3], in assay [4] and in assay [8] was greater than 100 µM in each case. Also, the TGI in assay [5] and in assay [9] was greater than 100 µM in each case.

With `C#C[C@]1(O)CC[C@H]2[C@@H]3CCC4=C/C(=N/OC(=O)c5cccc6cc7ccccc7nc56)CC[C@@H]4[C@H]3CC[C@@]21CC`, the TGI in assay [7], in assay [2], in assay [3], in assay [4], in [5] and in [10] was greater than 100 µM each time. For the same compound, in assay [9], the TGI was greater than 100 µM.

Take `CC(=O)N(C(=O)CC(=O)N1N=C(C)C(N=Nc2cccc([N+](=O)[O-])c2)C1=O)c1ccc(Cl)cc1` (stereo not given): the TGI in assay [6], in assay [3], in [4], in assay [8], in assay [10] and in assay [9] was greater than 10 µM throughout.

As to `CCC(C)C(NC(=O)c1cccc2c(=O)c3ccccc3[nH]c12)C(=O)O` (stereo not given), the TGI in assay [6], in assay [1], in assay [7], in [2], in [3] and in assay [4] was greater than 100 µM throughout. Moreover, the TGI in assay [8] and in assay [9] was greater than 100 µM each time.

Regarding `NC1=Nc2ncccc2C(=O)NN1`, the TGI in assay [1], in [7], in assay [2], in assay [3], in assay [4] and in assay [8] was greater than 10 µM throughout. Also, the TGI in [5], in assay [10] and in assay [9] was greater than 10 µM each time.

For `CC(=O)OC1CCC2(C)C(CCC3C2CCC2(C)C(c4ccc(=O)oc4)C(OC(C)=O)CC32O)C1` (stereo not given), the TGI in [6] was 0.025 µM; in [1], 0.0279 µM; in assay [7], 0.0911 µM; in assay [2], 0.161 µM; in assay [3], 0.503 µM; in [4], 0.0951 µM. For the same compound, the TGI in assay [8] worked out at 0.0456 µM; in [5], 0.0197 µM; in assay [9] it was 0.33 µM.

In the case of `O=S(c1ccc(O)cc1)c1ccc(O)cc1`, the TGI in assay [6], in assay [1], in assay [7], in [8], in assay [5] and in assay [9] was greater than 100 µM throughout.

As for `CC/C(CC(=O)CCC(=O)Nc1ccc(C)c(C)c1)=N\NC(=O)c1cc2ccccc2cc1O`, the TGI in [1] is 88.3 µM; in assay [7], greater than 100 µM; in assay [3] it was greater than 100 µM; in [4], greater than 100 µM; in [8], greater than 100 µM; in assay [5], greater than 100 µM. In assay [9], this compound showed a TGI greater than 100 µM.

On to `Cc1cc2nc3c(N)nn(CCCN(C)C)c3nc2cc1C`, for which the concentration for total growth inhibition (TGI) in [1], in assay [2], in assay [3], in assay [4], in assay [8] and in assay [5] was greater than 100 µM throughout. Also, the TGI in assay [10] and in assay [9] was greater than 100 µM each time.

Take `O=C1OCOC2(CCCC2)C1c1ccccc1` (stereo not given): the concentration for total growth inhibition (TGI) in assay [6], in [1], in assay [7], in assay [2], in assay [3] and in [4] was greater than 100 µM each time. In addition, the TGI in assay [8], in [5] and in [9] was greater than 100 µM in each case.
